Experimental data taken from US9341839B2, “Electrowetting display device and dye composition for electrowetting display” (FUJIFILM CORPORATION, priority 2012, dated 2016).

Test: Solubility of dye in normal decane
Type: physicochemical
Conditions: n-decane, 25° C., after heating to 50° C. and leaving 12 hours; 40% by mass added

tetraphenylporphine [Comparative compound H-1]
Solubility in Decane: less than 0.1% by mass
